Data published in the NIST ThermoML archive (doi:10.1021/je020067x).
Numbers after ± are expanded uncertainties.

Assays:
[1] = xn = mol fraction of the nth substance listed; conditions: 303.15 K, 101.33 kPa, Liquid; for viscosity: Capillary tube (Ostwald / Ubbelohde) method; for mass density: Vibrating tube method
[2] = 303.15 K, 101.33 kPa, Liquid; for viscosity: Capillary tube (Ostwald / Ubbelohde) method; for mass density: Vibrating tube method

ClC(Cl)(Cl)Cl [tetrachloromethane] + ClCCl
viscosity ([1]; x1 = 0.0375): 0.4008 ± 0.0037 mPa·s
viscosity ([1]; x1 = 0.0622): 0.4061 ± 0.0037 mPa·s
viscosity ([1]; x1 = 0.0791): 0.4097 ± 0.0038 mPa·s
viscosity ([1]; x1 = 0.0889): 0.412 ± 0.0038 mPa·s
viscosity ([1]; x1 = 0.1254): 0.421 ± 0.0038 mPa·s
viscosity ([1]; x1 = 0.2047): 0.441 ± 0.004 mPa·s
viscosity ([1]; x1 = 0.2305): 0.4479 ± 0.004 mPa·s
viscosity ([1]; x1 = 0.297): 0.4669 ± 0.0042 mPa·s
viscosity ([1]; x1 = 0.3695): 0.4897 ± 0.0043 mPa·s
viscosity ([1]; x1 = 0.4985): 0.5369 ± 0.0047 mPa·s
viscosity ([1]; x1 = 0.4986): 0.5374 ± 0.0047 mPa·s
viscosity ([1]; x1 = 0.4997): 0.5375 ± 0.0047 mPa·s
viscosity ([1]; x1 = 0.5631): 0.564 ± 0.0049 mPa·s
viscosity ([1]; x1 = 0.609): 0.5853 ± 0.005 mPa·s
viscosity ([1]; x1 = 0.6845): 0.6223 ± 0.0053 mPa·s
viscosity ([1]; x1 = 0.8006): 0.6894 ± 0.0058 mPa·s
viscosity ([1]; x1 = 0.8032): 0.6915 ± 0.0058 mPa·s
viscosity ([1]; x1 = 0.8652): 0.7331 ± 0.0061 mPa·s
viscosity ([1]; x1 = 0.9279): 0.7792 ± 0.0064 mPa·s
viscosity ([1]; x1 = 0.9677): 0.8116 ± 0.0066 mPa·s
mass density ([1]; x1 = 0.0375): 1321.5 ± 0.7 kg/m3
mass density ([1]; x1 = 0.0622): 1330.4 ± 0.7 kg/m3
mass density ([1]; x1 = 0.0791): 1336.4 ± 0.7 kg/m3
mass density ([1]; x1 = 0.0889): 1339.9 ± 0.7 kg/m3
mass density ([1]; x1 = 0.1254): 1352.4 ± 0.7 kg/m3
mass density ([1]; x1 = 0.2047): 1378.4 ± 0.7 kg/m3
mass density ([1]; x1 = 0.2305): 1386.5 ± 0.7 kg/m3
mass density ([1]; x1 = 0.297): 1406.7 ± 0.7 kg/m3
mass density ([1]; x1 = 0.3695): 1427.7 ± 0.7 kg/m3
mass density ([1]; x1 = 0.4985): 1462.5 ± 0.8 kg/m3
mass density ([1]; x1 = 0.4986): 1462.5 ± 0.8 kg/m3
mass density ([1]; x1 = 0.4997): 1462.8 ± 0.8 kg/m3
mass density ([1]; x1 = 0.5631): 1478.9 ± 0.8 kg/m3
mass density ([1]; x1 = 0.609): 1490.1 ± 0.8 kg/m3
mass density ([1]; x1 = 0.6845): 1508 ± 0.8 kg/m3
mass density ([1]; x1 = 0.8006): 1533.9 ± 0.8 kg/m3
mass density ([1]; x1 = 0.8032): 1534.5 ± 0.8 kg/m3
mass density ([1]; x1 = 0.8652): 1547.7 ± 0.8 kg/m3
mass density ([1]; x1 = 0.9279): 1560.7 ± 0.8 kg/m3
mass density ([1]; x1 = 0.9677): 1568.6 ± 0.8 kg/m3

ClC(Cl)(Cl)Cl [tetrachloromethane] + ClC(Cl)Cl
viscosity ([1]; x1 = 0.0591): 0.5216 ± 0.0044 mPa·s
viscosity ([1]; x1 = 0.075): 0.5248 ± 0.0045 mPa·s
viscosity ([1]; x1 = 0.1297): 0.5343 ± 0.0045 mPa·s
viscosity ([1]; x1 = 0.2236): 0.5538 ± 0.0047 mPa·s
viscosity ([1]; x1 = 0.2777): 0.5658 ± 0.0048 mPa·s
viscosity ([1]; x1 = 0.3416): 0.5811 ± 0.0049 mPa·s
viscosity ([1]; x1 = 0.434): 0.6041 ± 0.005 mPa·s
viscosity ([1]; x1 = 0.4886): 0.6201 ± 0.0052 mPa·s
viscosity ([1]; x1 = 0.5736): 0.6486 ± 0.0054 mPa·s
viscosity ([1]; x1 = 0.6646): 0.6807 ± 0.0056 mPa·s
viscosity ([1]; x1 = 0.7747): 0.7256 ± 0.0059 mPa·s
viscosity ([1]; x1 = 0.8186): 0.7458 ± 0.0061 mPa·s
viscosity ([1]; x1 = 0.8904): 0.7804 ± 0.0063 mPa·s
viscosity ([1]; x1 = 0.9305): 0.8017 ± 0.0065 mPa·s
mass density ([1]; x1 = 0.0591): 1477.2 ± 0.8 kg/m3
mass density ([1]; x1 = 0.075): 1479 ± 0.8 kg/m3
mass density ([1]; x1 = 0.1297): 1485.1 ± 0.8 kg/m3
mass density ([1]; x1 = 0.2236): 1495.3 ± 0.8 kg/m3
mass density ([1]; x1 = 0.2777): 1501.2 ± 0.8 kg/m3
mass density ([1]; x1 = 0.3416): 1508.1 ± 0.8 kg/m3
mass density ([1]; x1 = 0.434): 1517.9 ± 0.8 kg/m3
mass density ([1]; x1 = 0.4886): 1523.6 ± 0.8 kg/m3
mass density ([1]; x1 = 0.5736): 1532.5 ± 0.8 kg/m3
mass density ([1]; x1 = 0.6646): 1541.8 ± 0.8 kg/m3
mass density ([1]; x1 = 0.7747): 1552.9 ± 0.8 kg/m3
mass density ([1]; x1 = 0.8186): 1557.3 ± 0.8 kg/m3
mass density ([1]; x1 = 0.8904): 1564.4 ± 0.8 kg/m3
mass density ([1]; x1 = 0.9305): 1568.3 ± 0.8 kg/m3

ClC(Cl)Cl [trichloromethane]
viscosity [2]: 0.5118 ± 0.0044 mPa·s
mass density [2]: 1470.5 ± 0.8 kg/m3

ClCCl [dichloromethane]
viscosity [2]: 0.3929 ± 0.0035 mPa·s
mass density [2]: 1307.6 ± 0.7 kg/m3

ClC(Cl)(Cl)Cl [tetrachloromethane]
viscosity [2]: 0.8403 ± 0.0068 mPa·s
mass density [2]: 1575 ± 0.8 kg/m3

ClCCl [dichloromethane] + ClC(Cl)Cl
viscosity ([1]; x1 = 0.0633): 0.504 ± 0.0043 mPa·s
viscosity ([1]; x1 = 0.1191): 0.4976 ± 0.0043 mPa·s
viscosity ([1]; x1 = 0.1924): 0.4892 ± 0.0042 mPa·s
viscosity ([1]; x1 = 0.3101): 0.4741 ± 0.0041 mPa·s
viscosity ([1]; x1 = 0.3607): 0.4686 ± 0.0041 mPa·s
viscosity ([1]; x1 = 0.4299): 0.4602 ± 0.004 mPa·s
viscosity ([1]; x1 = 0.5221): 0.4501 ± 0.0039 mPa·s
viscosity ([1]; x1 = 0.6464): 0.4352 ± 0.0038 mPa·s
viscosity ([1]; x1 = 0.6833): 0.4301 ± 0.0038 mPa·s
viscosity ([1]; x1 = 0.74): 0.4236 ± 0.0037 mPa·s
viscosity ([1]; x1 = 0.7979): 0.4163 ± 0.0037 mPa·s
viscosity ([1]; x1 = 0.8681): 0.4083 ± 0.0036 mPa·s
viscosity ([1]; x1 = 0.9034): 0.404 ± 0.0036 mPa·s
viscosity ([1]; x1 = 0.9358): 0.4005 ± 0.0036 mPa·s
mass density ([1]; x1 = 0.0633): 1462.3 ± 0.8 kg/m3
mass density ([1]; x1 = 0.1191): 1454.8 ± 0.8 kg/m3
mass density ([1]; x1 = 0.1924): 1444.7 ± 0.7 kg/m3
mass density ([1]; x1 = 0.3101): 1427.8 ± 0.7 kg/m3
mass density ([1]; x1 = 0.3607): 1420.3 ± 0.7 kg/m3
mass density ([1]; x1 = 0.4299): 1409.7 ± 0.7 kg/m3
mass density ([1]; x1 = 0.5221): 1395.1 ± 0.7 kg/m3
mass density ([1]; x1 = 0.6464): 1374.3 ± 0.7 kg/m3
mass density ([1]; x1 = 0.6833): 1367.8 ± 0.7 kg/m3
mass density ([1]; x1 = 0.74): 1357.8 ± 0.7 kg/m3
mass density ([1]; x1 = 0.7979): 1347.1 ± 0.7 kg/m3
mass density ([1]; x1 = 0.8681): 1333.9 ± 0.7 kg/m3
mass density ([1]; x1 = 0.9034): 1327 ± 0.7 kg/m3
mass density ([1]; x1 = 0.9358): 1320.6 ± 0.7 kg/m3
